The text below walks through data of US9676714B2, “Sulfonylindole derivatives and method for preparing the same” (Daewoong Pharmaceutical Co., Ltd., priority 2013, dated 2017).

The target in the assay is T1, proton pump (H+/K+-ATPase) (Sus scrofa, UniProt P19156).
T1 construct: Gastric vesicles were prepared from hog stomach via centrifugal separation; from tissue; host or cells: hog stomach (gastric vesicles, method of Rabon et al. 1988)
The experiment in a line: Measurement of inhibitory effects on proton pump (H+/K+-ATPase) activities. As to conditions: hog gastric vesicles, K+-specific H+/K+-ATPase activity, Tris-HCl buffer pH 7.4, 37° C. for 40 minutes, malachite green Pi readout. The assay is classed as biochemical. An outline of the steps: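 Hog gastric vesicles in 60 mmol/l Tris-HCl pH 7.4 with 0.5% DMSO were treated with compounds at room temperature; reaction was started with 10 μl of 10 mmol/l ATP stock. Released Pi was read at 570 nm, K+-specific activity taken as the ±K+ difference. IC50 from 4-parameter logistic fit.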

Structures can show the parent of a compound that is named as a salt.

T1 sequence (P19156 whole entry): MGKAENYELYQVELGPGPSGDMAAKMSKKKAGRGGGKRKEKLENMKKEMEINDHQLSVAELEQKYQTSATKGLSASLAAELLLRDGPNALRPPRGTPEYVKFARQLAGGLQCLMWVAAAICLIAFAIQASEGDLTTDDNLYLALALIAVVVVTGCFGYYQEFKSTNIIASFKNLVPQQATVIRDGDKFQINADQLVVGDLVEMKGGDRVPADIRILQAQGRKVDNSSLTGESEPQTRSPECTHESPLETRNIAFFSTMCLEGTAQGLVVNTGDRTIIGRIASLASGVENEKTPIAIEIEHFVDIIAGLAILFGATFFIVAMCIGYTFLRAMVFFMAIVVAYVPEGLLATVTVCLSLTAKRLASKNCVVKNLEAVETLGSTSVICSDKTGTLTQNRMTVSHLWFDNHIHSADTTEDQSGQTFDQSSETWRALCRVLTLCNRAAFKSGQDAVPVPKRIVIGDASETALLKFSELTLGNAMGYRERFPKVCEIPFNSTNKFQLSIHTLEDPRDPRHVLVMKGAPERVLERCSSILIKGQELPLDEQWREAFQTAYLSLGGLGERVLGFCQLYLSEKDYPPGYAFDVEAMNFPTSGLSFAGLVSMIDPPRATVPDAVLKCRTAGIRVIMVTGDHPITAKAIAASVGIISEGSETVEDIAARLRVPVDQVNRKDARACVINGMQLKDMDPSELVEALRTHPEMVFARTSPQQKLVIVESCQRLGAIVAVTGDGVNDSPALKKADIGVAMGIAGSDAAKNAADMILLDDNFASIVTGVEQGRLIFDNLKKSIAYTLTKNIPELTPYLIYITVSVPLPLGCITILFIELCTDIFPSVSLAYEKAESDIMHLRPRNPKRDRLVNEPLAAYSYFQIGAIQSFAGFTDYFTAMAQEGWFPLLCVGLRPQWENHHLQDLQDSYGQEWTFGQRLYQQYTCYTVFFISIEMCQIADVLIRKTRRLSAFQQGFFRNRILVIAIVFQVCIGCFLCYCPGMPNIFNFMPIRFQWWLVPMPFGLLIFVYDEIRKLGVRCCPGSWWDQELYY
T1 sequence (P18434 whole entry partner): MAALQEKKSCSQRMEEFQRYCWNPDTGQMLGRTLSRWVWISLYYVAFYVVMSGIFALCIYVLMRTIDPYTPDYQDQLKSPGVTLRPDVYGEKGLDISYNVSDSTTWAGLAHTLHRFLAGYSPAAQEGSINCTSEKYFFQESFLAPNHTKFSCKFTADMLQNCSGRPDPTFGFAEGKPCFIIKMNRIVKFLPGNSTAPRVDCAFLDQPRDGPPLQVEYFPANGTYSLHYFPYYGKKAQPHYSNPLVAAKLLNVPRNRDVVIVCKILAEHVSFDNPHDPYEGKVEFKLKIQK

What is called IC50 is the concentration that gives 50% inhibition. Higher therefore signals lower potency. Consider `CNCc1cn(S(=O)(=O)c2cc(C)cc(C)c2)c2cc(Nc3ccc(C)cc3F)ccc12` [Example 239, 1-((3,5-dimethylphenyl)sulfonyl)-N-(2-fluoro-4-methylphenyl)-3-((methylamino)methyl)-1H-indol-6-amine hydrochloride], for which the 50% inhibitory concentration (IC50) was determined as 1.75 µM.
The result for `CNCc1cn(S(=O)(=O)c2ccc(Cl)c(Cl)c2Cl)c2cc(Nc3ccc(C)cc3F)ccc12` [Example 240, N-(2-fluoro-4-methylphenyl)-3-((methylamino)methyl)-1-((2,3,4-trichlorophenyl)sulfonyl)-1H-indol-6-amine hydrochloride] reads 1.67 µM.
The compound `CNCc1cn(S(=O)(=O)c2cncc(Br)c2)c2cc(Nc3ccc(C)cc3F)ccc12` [Example 241, 1-((5-bromopyridin-3-yl)sulfonyl)-N-(2-fluoro-4-methylphenyl)-3-((methylamino)methyl)-1H-indol-6-amine hydrochloride] came in with an IC50 of 2.19 µM.
As for `CNCc1cn(S(=O)(=O)c2ccc(OC)nc2)c2cc(Nc3ccc(C)cc3F)ccc12` [Example 242, N-(2-fluoro-4-methylphenyl)-1-((6-methoxypyridin-3-yl)sulfonyl)-3-((methylamino)methyl)-1H-indol-6-amine hydrochloride], inhibition was half-maximal at 3.85 µM (IC50). Compared with the last compound, the IC50 is about 1.8-fold higher.
In turn, `CNCc1cn(S(=O)(=O)c2cccnc2)c2cc(-c3ccccc3)ccc12` [Example 243, N-methyl-1-(6-phenyl-1-(pyridin-3-ylsulfonyl)-1H-indol-3-yl)methanamine] returned an IC50 of 7.14 µM.
The compound `CNCc1cn(S(=O)(=O)c2cccnc2)c2cc(-c3cccc(Cl)c3)ccc12` [Example 244, 1-(6-(3-chlorophenyl)-1-(pyridin-3-ylsulfonyl)-1H-indol-3-yl)-N-methylmethanamine] returned a half-inhibitory concentration (IC50) of 2.44 µM.
To `CNCc1cn(S(=O)(=O)c2cccnc2)c2cc(-c3cccc(NC(C)=O)c3)ccc12` [Example 245, N-(3-(3-((methylamino)methyl)-1-(pyridin-3-ylsulfonyl)-1H-indol-6-yl)phenyl)acetamide] belongs 12.9 µM; to `CNCc1cn(S(=O)(=O)c2cccnc2)c2cc(-c3ccc(N)cc3)ccc12` [Example 246, 4-(3-((methylamino)methyl)-1-(pyridin-3-ylsulfonyl)-1H-indol-6-yl)aniline], 0.53 µM.
`CNCc1cn(S(=O)(=O)c2cccnc2)c2cc(-c3ccc(-c4ccccc4)cc3)ccc12` [Example 247, 1-(6-([1,1′-biphenyl]-4-yl)-1-(pyridin-3-ylsulfonyl)-1H-indol-3-yl)-N-methylmethanamine] yielded a 50% inhibitory concentration (IC50) of 4.15 µM.
The result for `CNCc1cn(S(=O)(=O)c2cccnc2)c2cc(-c3ccc(OC)nc3)ccc12` [Example 248, 1-(6-(6-methoxypyridin-3-yl)-1-(pyridin-3-ylsulfonyl)-1H-indol-3-yl)-N-methylmethanamine] reads 20 µM; that for `CNCc1cn(S(=O)(=O)c2cccnc2)c2cc(-c3cnn(C)c3)ccc12` [Example 249, N-methyl-1-(6-(1-methyl-1H-pyrazol-4-yl)-1-(pyridin-3-ylsulfonyl)-1H-indol-3-yl)methanamine], 50 µM.
To `CNCc1cn(S(=O)(=O)c2cccnc2)c2cc(-c3ccnn3C)ccc12` [Example 250, N-methyl-1-(6-(1-methyl-1H-pyrazol-5-yl)-1-(pyridin-3-ylsulfonyl)-1H-indol-3-yl)methanamine] belongs 40 µM; to `CNCc1cn(S(=O)(=O)c2cccnc2)c2cc(-c3ccc(OC)cc3)ccc12` [Example 251, 1-(6-(4-methoxyphenyl)-1-(pyridin-3-ylsulfonyl)-1H-indol-3-yl)-N-methylmethanamine hydrochloride], 2.6 µM; to `CNCc1cn(S(=O)(=O)c2cccnc2)c2cc(-c3ccc(C)cc3F)ccc12` [Example 252, 1-(6-(2-fluoro-4-methylphenyl)-1-(pyridin-3-ylsulfonyl)-1H-indol-3-yl)-N-methylmethanamine hydrochloride], 1 µM.
The result for `CNCc1cn(S(=O)(=O)c2cccnc2)c2cc(-c3ccc(C)cc3Cl)ccc12` [Example 253, 1-(6-(2-chloro-4-methylphenyl)-1-(pyridin-3-ylsulfonyl)-1H-indol-3-yl)-N-methylmethanamine hydrochloride] reads 0.49 µM.
`CNCc1cn(S(=O)(=O)c2cccnc2)c2cc(-c3cccnc3C(F)(F)F)ccc12` [Example 254, N-methyl-1-(1-(pyridin-3-ylsulfonyl)-6-(2-(trifluoromethyl)pyridin-3-yl)-1H-indol-3-yl)methanamine hydrochloride] displayed an IC50 of 9.15 µM. Compared with the last compound, the IC50 is about 19-fold higher.
To `CNCc1cn(S(=O)(=O)c2cccnc2)c2cc(-c3ccc(F)nc3)ccc12` [Example 255, 1-(6-(6-fluoropyridin-3-yl)-1-(pyridin-3-ylsulfonyl)-1H-indol-3-yl)-N-methylmethanamine hydrochloride] belongs 11.7 µM; to `CNCc1cn(S(=O)(=O)c2cccnc2)c2cc(-c3ccnc(F)c3)ccc12` [Example 256, 1-(6-(2-fluoropyridin-4-yl)-1-(pyridin-3-ylsulfonyl)-1H-indol-3-yl)-N-methylmethanamine hydrochloride], 20 µM.
To `CNCc1cn(S(=O)(=O)c2cccnc2)c2cc(-c3cnc(F)c(C)c3)ccc12` [Example 257, 1-(6-(6-fluoro-5-methylpyridin-3-yl)-1-(pyridin-3-ylsulfonyl)-1H-indol-3-yl)-N-methylmethanamine hydrochloride] belongs 14.2 µM; to `CNCc1cn(S(=O)(=O)c2cccnc2)c2cc(-c3cncnc3)ccc12` [Example 258, N-methyl-1-(1-(pyridin-3-ylsulfonyll)-6-(pyrimidin-5-yl)-1H-indol-3-yl)methanamine hydrochloride], 20 µM; to `CNCc1cn(S(=O)(=O)c2cccnc2)c2cc(-c3cnc(OC)nc3)ccc12` [Example 259, 1-(6-(2-methoxypyrimidin-5-yl)-1-(pyridin-3-ylsulfonyl)-1H-indol-3-yl)-N-methylmethanamine hydrochloride], 40 µM.
To `CNCc1cn(S(=O)(=O)c2cccnc2)c2cc(N3CCCc4cc(C)ccc43)ccc12` [Example 260, N-methyl-1-(6-(6-methyl-3,4-dihydroquinolin-1(2H)-yl)-1-(pyridin-3-ylsulfonyl)-1H-indol-3-yl)methanamine hydrochloride] belongs 0.38 µM.
As to `CNCc1cn(S(=O)(=O)c2cccc(OC(F)F)c2)c2cc(-c3cccnc3C(F)(F)F)ccc12` [Example 261, 1-(1-((3-(difluoromethoxy)phenyl)sulfonyl)-6-(2-(trifluoromethyl)pyridin-3-yl)-1H-indol-3-yl)-N-methylmethanamine hydrochloride], it took 9.24 µM to reach half-maximal inhibition (IC50). Compared with the last compound, the IC50 is about 24-fold higher.
To `CNCc1cn(S(=O)(=O)c2cccc(OC(F)F)c2)c2cc(-c3ccnc(F)c3)ccc12` [Example 262, 1-(1-((3-(difluoromethoxy)phenyl)sulfonyl)-6-(2-fluoropyridin-4-yl)-1H-indol-3-yl)-N-methylmethanamine hydrochloride] belongs 8.44 µM; to `CNCc1cn(S(=O)(=O)c2cccc(OC(F)F)c2)c2cc(-c3cnc(F)c(C)c3)ccc12` [Example 263, 1-(1-((3-(difluoromethoxy)phenyl)sulfonyl)-6-(6-fluoro-5-methylpyridin-3-yl)-1H-indol-3-yl)-N-methylmethanamine hydrochloride], 60 µM; to `CNCc1cn(S(=O)(=O)c2cccc(OC(F)F)c2)c2cc(-c3cncnc3)ccc12` [Example 264, 1-(1-((3-(difluoromethoxy)phenyl)sulfonyl)-6-(pyrimidin-5-yl)-1H-indol-3-yl)-N-methylmethanamine hydrochloride], 20 µM.
To `CNCc1cn(S(=O)(=O)c2ccc(OC(F)F)cc2)c2cc(-c3cncnc3)ccc12` [Example 265, 1-(1-((4-(difluoromethoxy)phenyl)sulfonyl)-6-(pyrimidin-5-yl)-1H-indol-3-yl)-N-methylmethanamine hydrochloride] belongs 40 µM.
`CNCc1cn(S(=O)(=O)c2cccc(OC(F)F)c2)c2cc(-c3cnc(OC)nc3)ccc12` [Example 266, 1-(1-((3-(difluoromethoxy)phenyl)sulfonyl)-6-(2-methoxypyrimidin-5-yl)-1H-indol-3-yl)-N-methylmethanamine hydrochloride] yielded an IC50 of 45 µM.
To `CNCc1cn(S(=O)(=O)c2cccnc2)c2cc(Cc3ccccc3)ccc12` [Example 268, 1-(6-benzyl-(pyridin-3-ylsulfonyl)-1H-indol-3-yl)-N-methylmethanamine hydrochloride] belongs 0.76 µM.
To `CNCc1cn(S(=O)(=O)c2cccnc2)c2cc(Cc3ccccc3F)ccc12` [Example 269, 1-(6-(2-fluorobenzyl)-1-(pyridin-3-ylsulfonyl)-1H-indol-3-yl)-N-methylmethanamine hydrochloride] belongs 0.77 µM.
To `CNCc1cn(S(=O)(=O)c2cccnc2)c2cc(Cc3ccc(OC(F)(F)F)cc3)ccc12` [Example 271, N-methyl-1-(1-(pyridin-3-ylsulfonyl)-6-(4-(trifluoromethoxy)benzyl)-1H-indol-3-yl)methanamine hydrochloride] belongs 3.95 µM.
The compound `CNCc1cn(S(=O)(=O)c2cccnc2)c2cc(Cc3ccc(Cl)cc3F)ccc12` [Example 274, 1-(6-(4-chloro-2-fluorobenzyl)-1-(pyridin-3-ylsulfonyl)-1H-indol-3-yl)-N-methylmethanamine hydrochloride] came in with a 50% inhibitory concentration (IC50) of 1.17 µM. This IC50 is about 3.4-fold lower than that of the compound before.
Compound `CNCc1cn(S(=O)(=O)c2cccnc2)c2cc(Cc3ccc(Cl)cc3C(F)(F)F)ccc12` [Example 275, 1-(6-(4-chloro-2-(trifluoromethyl)benzyl)-1-(pyridin-3-ylsulfonyl)-1H-indol-3-yl)-N-methylmethanamine hydrochloride] showed an IC50 of 1.76 µM.
